Laboratory results taken from patent US6037334A, “Phosphonates, process for preparing the same and medicaments” (Roche Diagnostics GmbH, priority 1996, dated 2000).
Where a name gives a salt, the structure may show the parent alone.

Tests used:
citrate plasma = assay: Activated Partial Thromboplastin Time (APTT); format: biochemical, human; details: difference to the control, 37° C.
Method: (§1) 9 parts of fresh blood from healthy donors was mixed with one part of sodium citrate solution (0.11 mol/l) and it was centrifuged for 10 minutes at room temperature at ca. 3000 r.p.m. The plasma was removed by pipette and can be stored at room temperature for ca. 8 hours.
Activated Partial Thromboplastin Time (APTT)
100 μl citrate plasma and 100 μl APTT reagent (Stago Diagnostics/Boehringer Mannheim GmbH; contains cephalin lyophilisate with a microcrystalline kieselguhr activator) are incubated for 3 minutes at 37° C. together with 10 μl dimethylsulfoxide (DMSO) or 10 μl of a solution of the active substance in DMSO in a ball coagulometer (KC10 from the Amelung Company). On addition of 100 μl 0.025 M calcium chloride solution a stopwatch is started and the time at which coagulation starts is determined. The APTT is ca. 28-35 seconds in the control measurements and is extended by the active substances. If no coagulation occurred in the measurements after 5 minutes the experiment was stopped (>300).
The measured APTT times in seconds are given in table 1 as a difference to the control. The concentrations of the active substances in the final volume were 100 μM (APTT 100), 10 μM (APTT 10), 1 μM (APTT 1), 0.1 μM (APTT 0.1).

horse thrombin = assay: Thrombin Time; format: biochemical; details: 500 μM final; difference to the control; 37° C.; citrate plasma, ca. 3 U/ml horse thrombin
Method: as §1
200 μl citrate plasma is incubated for 2 minutes at 37° C. in a ball coagulometer (KC10 from the Amelung Company). 10 μl dimethylsulfoxide (DMSO) or a solution of the active substance in DMSO is added to 190 μl pre-heated thrombin reagent (Boehringer Mannheim GmbH; contains ca. 3 U/ml horse thrombin and 0.0125 M Ca^++). On addition of 200 μl of this solution to the plasma a stopwatch is started and the time at which coagulation starts is determined. The thrombin time is ca. 24 sec. in control measurements and is extended by the active substances. If no coagulation occurred in the measurements after 5 minutes the experiment was stopped (>300).
The measured thrombin times in seconds are given in table 1 as a difference to the control. The concentrations of the active substances in the final volume were 500 μM (TT 500).

human factor Xa = human factor Xa (Homo sapiens, UniProt P00742); assay: biochemical
Sequence of human factor Xa (P00742 235-488 limits assumed): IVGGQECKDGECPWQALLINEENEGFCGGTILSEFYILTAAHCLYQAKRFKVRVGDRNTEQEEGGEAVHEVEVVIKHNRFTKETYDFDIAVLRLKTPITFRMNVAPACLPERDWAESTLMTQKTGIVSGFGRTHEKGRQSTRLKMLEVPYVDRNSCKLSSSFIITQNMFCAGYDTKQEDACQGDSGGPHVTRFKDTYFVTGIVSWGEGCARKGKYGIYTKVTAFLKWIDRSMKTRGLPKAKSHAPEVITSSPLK
Sequence of human factor Xa (P00742 41-179 partner limits assumed): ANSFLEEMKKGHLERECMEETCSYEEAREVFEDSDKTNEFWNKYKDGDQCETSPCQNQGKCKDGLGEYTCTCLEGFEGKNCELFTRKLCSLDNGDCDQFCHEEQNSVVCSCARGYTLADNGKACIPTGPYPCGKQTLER
Method: The kinetic measurements were carried out at pH=7.5 and 25° C. in 0.1 M phosphate buffer that contained 0.2 M sodium chloride and 0.5% polyethylene glycol 6000 (see below for preparation) in polystyrene semi-microcuvettes in a total volume of 1 ml. The reactions were started by addition of enzyme to pre-incubated solutions that contained either dimethyldisulfoxide (control) or solutions of the test substance in DMSO (inhibitor stock solutions: 10 mM in DMSO). The increase in absorbance at 405 nm due to the release of p-nitroaniline from the substrate was monitored over a time period of 12 minutes.
The inhibition constants Ki were determined as follows. […] KM and Vmax were determined from a measurement series (constant inhibitor concentration, variable substrate concentrations) by a non-linear fit to the equation [formula]
The Ki value is obtained by non-linear regression from the entire series of measurements with 16 sets of data (measurements at 4 different substrate concentrations and each with 4 different inhibitor concentrations) from the equation [formula] in which VMax denotes the maximum rate in the absence of an inhibitor, KM denotes the Michaelis constant and [S] the substrate concentration. […]

Structure (SMILES): CCOP(=O)(OCC)C(Oc1ccc2ccc(C(=N)N)cc2c1)c1ccc(OC2CCN(C(C)=N)CC2)cc1 (stereo not drawn) [Example 1, (7-Carbamimidoyl-naphthalen-2-yloxy)-[{4-[1-(1-imino-ethyl)-piperidin-4-yloxy]-phenyl}-methyl)-phosphonic acid diethyl ester-dihydrochloride]
- APTT 0.1 (citrate plasma; 0.1 μM final): 8 s
- APTT 1 (citrate plasma; 1 μM final): 45 s
- APTT 10 (citrate plasma; 10 μM final, >300 = no coagulation after 5 minutes): > 300 s
- APTT 100 (citrate plasma; 100 μM final, >300 = no coagulation after 5 minutes): > 300 s
- TT 500 (horse thrombin): 49 s
- Ki (human factor Xa): 2 nM
